The values that follow are results of earlier work, collected in patent publication US11246836B2, “Intramuscular depot of decoquinate compositions and method of prophylaxis and treatment thereof” (BLUELIGHT PHARMATECH CO., LTD., priority 2018, dated 2022).

Series [1] deals with P. yoelii. The note with it: 50 mg/kg in a corn oil emulsion.
In series [2] the test system is Plasmodium berghei ANKA. The following applies: single dose of 5 mg/kg suspended in soybean oil.
Series [3] concerns Plasmodium.

Each structure is given as a SMILES string. Converted amounts (≈) assume the structure as drawn.

For the compound `CCCCCCCCCCOc1cc2c(=O)c(C(=O)OCC)c[nH]c2cc1OCC` [decoquinate, ethyl-6-decyloxy-7-ethoxy-4-hydroxyquinoline-3-carboxylate], the “causal prophylaxis of parasitemia” value in series [1] was “efficacious”. For the same compound, the “appearance of blood stage parasites” value in series [2] is reported as “prevent the appearance of blood stage Plasmodium berghei ANKA parasites”. Also, the “minimum inhibitory concentration (MIC)” value in series [3] was 5.12 ng/mL (≈ 0.0123 µM).
